The text below walks through data of BindingDB's records for patent US10301272 (Phenex Pharmaceuticals, 2019).

This test has as its target T1, Isoform 2 of Nuclear receptor ROR-gamma (RORgT) (Homo sapiens, UniProt P51449).
T1 sequence (P51449 whole entry): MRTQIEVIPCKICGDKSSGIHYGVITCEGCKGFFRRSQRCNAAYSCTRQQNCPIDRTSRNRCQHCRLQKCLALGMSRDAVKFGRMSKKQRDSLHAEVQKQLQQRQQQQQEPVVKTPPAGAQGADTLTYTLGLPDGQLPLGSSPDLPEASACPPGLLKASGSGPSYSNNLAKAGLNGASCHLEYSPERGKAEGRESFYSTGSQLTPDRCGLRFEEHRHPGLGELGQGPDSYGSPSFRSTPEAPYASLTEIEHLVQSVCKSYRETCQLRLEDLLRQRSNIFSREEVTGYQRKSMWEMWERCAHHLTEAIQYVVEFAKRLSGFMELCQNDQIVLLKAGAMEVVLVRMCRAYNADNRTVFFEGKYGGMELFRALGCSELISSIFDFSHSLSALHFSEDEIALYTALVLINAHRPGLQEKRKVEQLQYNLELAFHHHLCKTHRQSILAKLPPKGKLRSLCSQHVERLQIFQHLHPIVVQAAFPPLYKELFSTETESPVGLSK
As to the kind of experiment: RORgamma Gal4 Reporter Gene Assay (FRET). As for the experimental part:
Determination of a ligand mediated Gal4 promoter driven transactivation to quantify ligand binding to RORγ was performed as follows: DNA encoding three different RORγ protein fragments was cloned into vector pCMV-BD (Stratagene). Expression was under control of a CMV promoter and as fusion to the DNA-binding domain of the yeast protein GAL4. Other vectors used were pFR-Luc (Stratagene) as regulated reporter plasmid. pFR-Luc contains a synthetic promoter with five tandem repeats of the yeast GAL4 binding sites that control expression of the Photinus pyralis (American firefly) luciferase gene. In order to improve experimental accuracy the plasmid pRL-CMV was cotransfected. pRL-CMV contains the constitutive CMV promoter, controlling the expression of the Renilla reniformis luciferase. […] The medium is supplemented with 10% fetal bovine serum, 0.1 mM nonessential amino acids, 1 mM sodium pyruvate, 1% Glutamax and 100 units Penicilin/[…] per mL at 37° C. in 5% CO2.For the assay, […] cells were plated per well in 96 well plates in 100 μL per well, incubated over night at 37° C. in 5% CO2. […] About 4 h after addition of the transfection solution, fresh Minimal Essential Medium (MEM, same composition as used for plating cells, but without serum) was added.
On the technique in general: In a reporter assay the amount or activity of a reporter protein is the signal.
Regarding `CCOC(=O)c1nc(Cc2ccccc2)c(-c2ccc(S(=O)(=O)NC(C)(C)C)c3ccccc23)s1` [US10301272, Example 202], inhibition was half-maximal at 63.1 nM (IC50).

As for `CC(C)(C)NS(=O)(=O)c1ccc(-c2sc(C(=O)NC3CCOCC3)nc2CC2CCCCC2)cc1C(F)(F)F` [US10301272, Example 9], the IC50 (usually the concentration that inhibits the measured activity by half) turned out to be 63.1 nM.

The compound `CC(C)(O)CNC(=O)c1nc(CC2CCC2)c(-c2ccc(S(=O)(=O)NC(C)(C)C)c(Cl)c2OC(F)F)s1` [US10301272, Example 21/1] showed an IC50 of 251 nM.
